“Also recorded” adds a separate entry of the source.
What was measured:
human cancer cells = conditions: cited from earlier work
thyroid iodine uptake = conditions: rats; as compared to thyroxine; cited from earlier work
[1] = tested on: microtubule protein (MTP); assay: Microtubule assembly (MTP polymerization) in vitro, optical test at 350 nm; format: biochemical, bovine or rabbit (brain)
Source text: This inhibition is critically dependent on the concentration of GTP. The quantitative correlation between the concentrations of DIME and GTP, under conditions of a linear rate of MTP polymerization, follows Michaelis-Menten kinetics and the inhibition portrays a "mixed" type, where km for GTP and Vmax are altered simultaneously. Chemical analogues of DIME inhibit MTP polymerization parallel to their antitumorigenic action in vivo. The MTP site is one of the early cellular response sites of DIME.
J. Oncol. Abnormal spindle structures could be the result of DIME-MTP interaction or reactions of DIME with components of the microtubule organizing center or with as yet undefined systems sequentially or in concert. Since time-dependent quantitative analysis of the MTP system in situ is unsuitable for initial velocity measurement we adapted the in vitro assembly system of neurotubules as a model for a quantitative analysis of the interaction of DIME with MTP. […] The time course of MTP assembly consists of initiation and propagation and termination steps, Gaskin, et al., 1974, "Turbidimetric studies of the in vitro assembly and disassembly of porcine neurotubules", J. Mol. Biol. 89:737-758. The rate of propagation under defined conditions is sufficiently linear to permit kinetic analysis, that can be evaluated with respect DIME and GTP concentrations. As we show here the inhibition of MTP assembly by DIME occurs in the same range of drug concentration as required to inhibit tumorigonesis in vivo, or to inhibit cell replication or induce eventual cell death; Mendeleyev, et al., 1997. "Structural specificity and tumoricidal action of methyl-3,5-diiodo-4-(4'-methoxyphenoxy)benzoate (DIME)" Int. J. Oncol., 10:689-695. Therefore the DIME-MTP interaction is most probably a component of the apparently pleiotropic cellular mechanism of action of DIME.
Preparation of MTP and an optical test for polymerization was adopted from published methods, Gaskin, et al., 1974, "Turbidimetric studies of the in vitro assembly and disassembly of porcine neurotubules", J. Mol. Biol. 89:737-758; Tiwari, et al., 1993, "A pH and temperature-dependent cycling method that doubles the yield of microtubule protein", Anal. Biochem. 215:96-103. Bovine or rabbit brain was homogenized in an equal volume of ice cold buffer containing 100 mM Pipes/K^+ (pH 7.4), 4 mM EGTA. 1 mM MgCl2, 0.5 mM DTT and 0.1 mM PMSF, and centrifuged at 39,000 g for 1 hour at 4° C. To the supernatant, DMSO (8% final concentration) and GTP (1 mM final concentration) were added, followed by incubation at 37° C. for 30 minutes. Microtubules were pelleted at 100,000 g at 37° C. for 30 minutes. The pellets were incubated on ice for 15 minutes, followed by resuspension in ice cold PEM buffer (100 mM Pipes/K+ (pH 6.9), 1 mM EGTA, 1 mM MgCl2). This warm polymerization and cold depolymerization cycle was repeated once more and the cold, resuspended monomeric MTP (8-10 mg/ml protein) was used for the optical test for polymerization kinetics. Both rabbit or bovine brain yielded identical MTP preparations.
The polymerization reaction was started by the addition of […] of MTP solution (equivalent to 0.8-1.0 mg protein) and initial linear rates of increase in absorbance at 350 nm followed and recorded at 37° C. in a Perkin-Elmer 552 double beam spectrophotometer, equipped with a thermostatically controlled cuvette holder.
It is apparent that the rate of MTP polymerization proceeds in a linear manner, thus conditions for maximal polymerization rates as defined by Berne, B, 1974, "Interpretation of light scattering from long rods", J. Mol. Biol. 89:755-758 appear fulfilled. Therefore it is possible to determine the quantitative correlation between [DIME] and [GTP] by comparing the linear rate in the presence of varying drug and activator concentrations.
The assay system consisted of 240 μl of PEM buffer containing 8% DMSO […]
(added in 3 μl), or solvent control and 0.6 mg MTP (60 μl). […]

[2] = tested on: biosynthetic pathways of DNA, RNA or proteins; conditions: cited from earlier work
[3] = tested on: human mammary cancer cells (MDA-MB-231); assay: Growth of human mammary cancer cells (Table 2 A); format: cell-based; conditions: 2 μM
Source text: The effects of these three substances on the growth of human mammary cancer cells (MDA-MB-231) and human lung cancer cells (A 549) are summarized in Table 2.
In section (a) of Table 2 the effects of DIME, DIPE and DIPP on the growth of mammary cancer cells, assayed at 48 and 72 hrs, is shown. […] The slightly lesser efficacy of DIPP could be predicted from earlier results obtained with DIME analogs (International Journal of Oncology, 1997, 10, 689-695, FIG. 1) where we have shown that extending the methyl to ethyl substitution (on the carboxyl ester) diminishes cytotoxicity against tumor cells. A similar phenomenon occurs when DIPE is extended to DIPP (i.e. from the ethanone to the propanone).
(×10^3) Cell number per 2 cm^2

protein phosphatase 2A = conditions: cited from earlier work
cancer cells = assay: Blocking of mitosis in cancer cells; format: cell-based
[4] = tested on: non-malignant mouse pituitary adenoma; conditions: cited from earlier work
mammary cancer cells = assay: Colony formation by mammary cancer cells (FIG. 1); format: cell-based, human; conditions: DIME vs DIPE
Source text: FIG. 1 is a graph illustrating the cell killing effects of DIME and DIPE on mammary cancer colonies;
The effect of DIME and DIPE on colony formation by mammary cancer cells is illustrated in FIG. 1, where the results are superimposable, confirming that cytocidal action of DIME and DIPE are indistinguishable.

Rana pipiens tadpoles = conditions: tadpole metamorphosis; cited from earlier work

COC(=O)c1cc(I)c(Oc2ccc(OC)cc2)c(I)c1 [DIME, methyl 3,5-diiodo-4-(4'-methoxyphenoxy)benzoate]
cytostatic / cytocidal activity (human cancer cells; cellular assays and in vivo): highly active both in cellular assays and in vivo
growth inhibition of malignant cell types (human cancer cells): inhibit the growth of a variety of malignant cell types
tumor cell apoptosis (human cancer cells): induce tumor cell apoptosis preceded by micronucleation
tumoricidal activity in cell cultures (human cancer cells): potential tumoricidal agent both in cell cultures and in vivo
inhibition of uptake of iodine into the thyroid (thyroid iodine uptake): 15%
Percent inhibition of intitial velocity (microtubule assembly in vitro) ([1]; 10 μM drug, GTP 1 mM, 37° C., averages of duplicate assay): 93%
change of km GTP ([1]; 1 mM DIME [sic]): ~50%
decrease of Vmax ([1]; 1 mM DIME [sic]): ~50%
Km ([1]; 1 mM DIME [sic], from 6.7 mM without drug, read-out: km GTP in presence of DIME): 14 µM
inhibition of MTP polymerization with increasing DIME ([1]; 1 mM GTP, increasing DIME concentrations): progressively inhibit MTP polymerization
inhibition of GTP-dependent polymerization of MTP ([1]; DIME at 1 to 5 mM as printed): inhibits the GTP-dependent polymerization of MTP
type of inhibition of MTP polymerization (DIME vs GTP) ([1]; double reciprocal plot / Michaelis-Menten, 1 mM DIME): "mixed" type inhibition
inhibitory action on MTP assembly (comparison, FIG. 2) ([1]; drug concentrations up to 20 μM): similar
order of potency on MTP assembly (FIG. 3) ([1]; zero to 10 μM drug, lowered GTP concentration (10 μM)): DIME>DIPE>DIPP
inhibition of biosynthetic pathways of DNA, RNA or proteins [2]: nor does it inhibit the biosynthetic pathways of DNA, RNA or proteins
Cell number ([3]; 48 hours, control 150): 60 ×10^3 cell number per 2 cm^2 w
Cell number ([3]; 72 hours, control 300): 65 ×10^3 cell number per 2 cm^2 w
activation of protein phosphatase 2A (protein phosphatase 2A): directly activates protein phosphatase 2A
blocking of mitosis in cancer cells (cancer cells): capable of blocking mitosis in cancer cells
inhibition of growth of non-malignant pituitary tumor [4]: no inhibitory activity
effect on colony formation (FIG. 1) (mammary cancer cells): superimposable
cell differentiating / metamorphogenic activity (Rana pipiens tadpoles): no significant metabolic or metamorphogenic action; also recorded: no significant metabolic or cell differentiating activity

From patent US5922775A, “Method of treating malignant tumors with ketone thyroxine analogues having no significant hormonal activity” (priority 1997, dated 1999)
